Here are results for 19 molecules from patent publication US20160280699A1, “SUBSTITUTED PHENYLALANINE DERIVATIVES” (BAYER PHARMA AKTIENGESELLSCHAFT, priority 2013, published 2016).

Where a name gives a salt, the structure may show the parent alone.

One assay concerns the target T1, human factor XIa (Homo sapiens, UniProt P03951).
T1 construct: purchased Kordia
The assay is described as follows: Measurement of FXIa inhibition (fluorogenic peptide substrate Boc-Glu(OBzl)-Ala-Arg-AMC). Type of assay: biochemical. The conditions noted are these: factor XIa from Kordia, 15 min preincubation, 30 min at 22° C., fluorescence. The protocol:
The factor XIa inhibition of the substances according to the invention is determined using a biochemical test system which utilizes the reaction of a peptidic factor XIa substrate to determine the enzymatic activity of human factor XIa. Here, factor XIa cleaves from the peptic factor XIa substrate the C-terminal aminomethylcoumarin (AMC), the fluorescence of which is measured. The determinations are carried out in microtitre plates.
Test substances are dissolved in dimethyl sulphoxide and serially diluted in dimethyl sulphoxide (3000 μM to 0.0078 μM; resulting final concentrations in the test: 50 μM to 0.00013 μM). In each case 1 μl of the diluted substance solutions is placed into the wells of white microtitre plates from Greiner (384 wells). Subsequently, the following are added successively: 20 μl of assay buffer (50 mmol/l Tris buffer pH 7.4; 100 mmol/l sodium chloride; 5 mmol/l calcium chloride; 0.1% bovine serum albumin) and 20 μl of factor XIa from Kordia (0.45 nM in assay buffer). After 15 min of incubation, the enzyme reaction is started by addition of 20 μl of the factor XIa substrate Boc-Glu(OBzl)-Ala-Arg-AMC dissolved in assay buffer (10 μM in assay buffer) from Bachem, the mixture is incubated at room temperature (22° C.) for 30 min and fluorescence is then measured (excitation: 360 nm, emission: 460 nm). The measured emissions of the test batches with test substance are compared to those of control batches without test substance (only dimethyl sulphoxide instead of test substance in dimethyl sulphoxide), and IC50 values are calculated from the concentration/activity relationships.

Another assay concerns human and animal plasma. As to the kind of experiment: Determination of anticoagulatory activity: activated partial thromboplastin time (aPTT) in plasma. Type of assay: biochemical. The note with it: concentration of test substance which brings about a 1.5-fold extension of the aPTT, 37° C., C.K. Prest kit. The protocol:
The anticoagulatory activity of the test substances is determined in vitro in human and animal plasma (for example mouse, rat, rabbit, pig and dog plasma). To this end, blood is drawn off in a mixing ratio of sodium citrate/blood of 1:9 using a 0.11 molar sodium citrate solution as receiver. Immediately after the blood has been drawn off, it is mixed thoroughly and centrifuged at about 4000 g for 15 minutes. The supernatant is pipetted off.
The activated partial thromboplastin time (aPTT) is determined in the presence of varying concentrations of test substance or the corresponding solvent using a commercial test kit (C.K. Prest from Diagnostica Stago). The test compounds are incubated with the plasma and the PTT reagent (cephalin, kaolin) at 37° C. for 3 minutes. Coagulation is then started by addition of a 25 mM aqueous calcium chloride solution, and the time when coagulation occurs is determined. The concentration of test substance which brings about a 1.5-fold extension of the aPTT is determined Activity data from this test are listed in Table B below: […]

T1 sequence (P03951 388-625 limits assumed): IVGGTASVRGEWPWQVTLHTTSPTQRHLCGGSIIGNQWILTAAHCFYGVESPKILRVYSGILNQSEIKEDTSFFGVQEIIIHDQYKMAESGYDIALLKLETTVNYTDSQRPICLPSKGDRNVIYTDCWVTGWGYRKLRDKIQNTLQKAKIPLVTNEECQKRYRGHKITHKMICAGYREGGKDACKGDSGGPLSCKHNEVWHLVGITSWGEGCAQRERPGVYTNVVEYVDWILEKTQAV
T1 sequence (P03951 19-387 partner limits assumed): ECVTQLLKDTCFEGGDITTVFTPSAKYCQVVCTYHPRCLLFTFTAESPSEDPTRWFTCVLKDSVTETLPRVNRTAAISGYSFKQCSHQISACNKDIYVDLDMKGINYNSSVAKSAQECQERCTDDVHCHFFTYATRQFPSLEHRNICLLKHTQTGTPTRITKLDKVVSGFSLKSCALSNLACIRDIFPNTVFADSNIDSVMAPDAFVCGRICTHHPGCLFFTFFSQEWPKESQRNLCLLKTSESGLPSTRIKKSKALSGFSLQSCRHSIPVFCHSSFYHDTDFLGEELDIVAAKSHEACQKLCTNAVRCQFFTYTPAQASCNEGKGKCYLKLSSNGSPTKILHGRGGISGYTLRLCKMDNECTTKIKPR

For `NC[C@H]1CC[C@H](C(=O)N[C@@H](Cc2ccc(-c3cnc(N4CCOCC4)nc3)cc2)C(=O)Nc2ccc(-c3nnn[nH]3)cc2)CC1` [Example 1, N-alpha-{[trans-4-(Aminomethyl)cyclohexyl]carbonyl}-4-[2-(morpholin-4-yl)pyrimidin-5-yl]-N-[4-(1H-tetrazol-5-yl)phenyl]-L-phenylalaninamide hydrochloride], the IC50 on human factor XIa stood at 5.7 nM.

For `CN1CCN(S(=O)(=O)c2cncc(-c3ccc(C[C@H](NC(=O)[C@H]4CC[C@H](CN)CC4)C(=O)Nc4ccc(-c5nnn[nH]5)cc4)cc3)c2)CC1` [Example 2, N-alpha-{[trans-4-(Aminomethyl)cyclohexyl]carbonyl}-4-{5-[(4-methylpiperazin-1-yl)sulphonyl]pyridin-3-yl}-N-[4-(1H-tetrazol-5-yl)phenyl]-L-phenylalaninamide hydrochloride], the half-inhibitory concentration (IC50) against human factor XIa worked out at 5.3 nM. Besides, the “aPTT” value in the assay on human and animal plasma was determined as 0.28 µmol/L. In turn, `NC[C@H]1CC[C@H](C(=O)N[C@@H](Cc2ccc(-c3cccnc3Cl)cc2)C(=O)Nc2ccc(-c3nnn[nH]3)cc2)CC1` [Example 3, N-alpha-{[trans-4-(Aminomethyl)cyclohexyl]carbonyl}-4-(2-chloropyridin-3-yl)-N-[4-(1H-tetrazol-5-yl)phenyl]-L-phenylalaninamide hydrochloride] gave an IC50 at human factor XIa of 2.3 nM. The “aPTT” value in the assay on human and animal plasma was found to be 0.24 µmol/L. At human factor XIa, `CN(C)c1ccc(-c2ccc(C[C@H](NC(=O)[C@H]3CC[C@H](CN)CC3)C(=O)Nc3ccc(-c4nnn[nH]4)cc3)cc2)cn1` [Example 4, N-alpha-{[trans-4-(Aminomethyl)cyclohexyl]carbonyl}-4-[6-(dimethylamino)pyridin-3-yl]-N-[4-(1H-tetrazol-5-yl)phenyl]-L-phenylalaninamide hydrochloride] gave a 50% inhibitory concentration (IC50) of 3.8 nM. In the assay on human and animal plasma, the “aPTT” value amounted to 0.23 µmol/L.

As to `NC[C@H]1CC[C@H](C(=O)N[C@@H](Cc2ccc(-c3cccnc3)cc2)C(=O)Nc2ccc(-c3nn[nH]n3)cc2)CC1` [Example 5, N-alpha-{[trans-4-(Aminomethyl)cyclohexyl]carbonyl}-4-pyridin-3-yl-N-[4-(2H-tetrazol-5-yl)phenyl]phenylalaninamide], on human factor XIa, 7 nM corresponded to half-maximal inhibition (IC50). In addition, in the assay with human and animal plasma, the “aPTT” value was 0.35 µmol/L. Turning to `CN(C)CCCOc1ccc(-c2ccc(C[C@H](NC(=O)[C@H]3CC[C@H](CN)CC3)C(=O)Nc3ccc(-c4nn[nH]n4)cc3)cc2)cn1` [Example 6, N-alpha-{[trans-4-(Aminomethyl)cyclohexyl]carbonyl}-4-{6-[3-(dimethylamino)propoxy]pyridin-3-yl}-N-[4-(2H-tetrazol-5-yl)phenyl]-L-phenylalaninamide hydrochloride], at human factor XIa, the midpoint of inhibition, the IC50, lay at 15 nM. The molecule `NC[C@H]1CC[C@H](C(=O)N[C@@H](Cc2ccc(-c3ccc(N4CCOCC4)nc3)cc2)C(=O)Nc2ccc(-c3nn[nH]n3)cc2)CC1` [Example 7, N-alpha-{[trans-4-(Aminomethyl)cyclohexyl]carbonyl}-4-[6-(morpholin-4-yl)pyridin-3-yl]-N-[4-(2H-tetrazol-5-yl)phenyl]-L-phenylalaninamide hydrochloride] yielded an IC50 against human factor XIa of 2.2 nM. For the same molecule, the “aPTT” value in the assay with human and animal plasma was determined as 0.29 µmol/L. As to `NC[C@H]1CC[C@H](C(=O)N[C@@H](Cc2ccc(-c3ccncc3)cc2)C(=O)Nc2ccc(-c3noc(=O)[nH]3)cc2)CC1` [Example 8, N-alpha-{[trans-4-(Aminomethyl)cyclohexyl]carbonyl}-N-[4-(5-oxo-4,5-dihydro-1,2,4-oxadiazol-3-yl)phenyl]-4-pyridin-4-yl-L-phenylalaninamide hydrochloride], the IC50 at human factor XIa is 9.2 nM. For the same molecule, the “aPTT” value with human and animal plasma is 0.15 µmol/L. In the case of `NC[C@H]1CC[C@H](C(=O)N[C@@H](Cc2ccc(-c3cncc(Cl)c3)cc2)C(=O)Nc2ccc(-c3nn[nH]n3)cc2)CC1` [Example 10, N-alpha-{[trans-4-(Aminomethyl)cyclohexyl]carbonyl}-4-(5-chloropyridin-3-yl)-N-[4-(2H-tetrazol-5-yl)phenyl]-L-phenylalaninamide hydrochloride], at human factor XIa, 6.2 nM corresponded to half-maximal inhibition (IC50). Molecule `NC[C@H]1CC[C@H](C(=O)N[C@@H](Cc2ccc(-c3ccncc3)cc2)C(=O)Nc2ccc(-c3nn[nH]n3)cc2)CC1` [Example 11, N-alpha-{[trans-4-(Aminomethyl)cyclohexyl]carbonyl}-4-pyridin-4-yl-N-[4-(2H-tetrazol-5-yl)phenyl]-L-phenylalaninamide hydrochloride] displayed an IC50 against human factor XIa of 5.2 nM. Also, in the assay with human and animal plasma, the “aPTT” value turned out to be 0.24 µmol/L.

Turning to `NC[C@H]1CC[C@H](C(=O)N[C@@H](Cc2ccc(-c3cnccc3Cl)cc2)C(=O)Nc2ccc(-c3nn[nH]n3)cc2)CC1` [Example 12, N-alpha-{[trans-4-(Aminomethyl)cyclohexyl]carbonyl}-4-(4-chloropyridin-3-yl)-N-[4-(2H-tetrazol-5-yl)phenyl]-L-phenylalaninamide hydrochloride], at human factor XIa, inhibition was half-maximal at 5.9 nM (IC50). In the assay with human and animal plasma, the “aPTT” value is 0.43 µmol/L.

As to `Cc1ncccc1-c1ccc(C[C@H](NC(=O)[C@H]2CC[C@H](CN)CC2)C(=O)Nc2ccc(-c3nn[nH]n3)cc2)cc1` [Example 13, N-alpha-{[trans-4-(Aminomethyl)cyclohexyl]carbonyl}-4-(2-methylpyridin-3-yl)-N-[4-(2H-tetrazol-5-yl)phenyl]-L-phenylalaninamide hydrochloride], half-maximal inhibition against human factor XIa (IC50) required 2.1 nM. For the same molecule, in the assay with human and animal plasma, the “aPTT” value came to 0.13 µmol/L. The matching figures for `NC[C@H]1CC[C@H](C(=O)N[C@@H](Cc2ccc(-c3cccnc3)cc2)C(=O)Nc2ccc(-c3noc(=O)[nH]3)cc2)CC1` [Example 14, N-alpha-{[trans-4-(Aminomethyl)cyclohexyl]carbonyl}-N-[4-(5-oxo-4,5-dihydro-1,2,4-oxadiazol-3-yl)phenyl]-4-pyridin-3-yl-L-phenylalaninamide hydrochloride]: 8.5 nM and 0.28 µmol/L.

As for `NC[C@H]1CC[C@H](C(=O)N[C@@H](Cc2ccc(-c3ccncc3Cl)cc2)C(=O)Nc2ccc(-c3nn[nH]n3)cc2)CC1` [Example 15, N-alpha-{[trans-4-(Aminomethyl)cyclohexyl]carbonyl}-4-(3-chloropyridin-4-yl)-N-[4-(2H-tetrazol-5-yl)phenyl]-L-phenylalaninamide hydrochloride], half-maximal inhibition against human factor XIa (IC50) required 2.8 nM. For the same molecule, the “aPTT” value with human and animal plasma came out at 0.14 µmol/L. In the case of `NC[C@H]1CC[C@H](C(=O)N[C@@H](Cc2ccc(-c3ccc(O)nc3)cc2)C(=O)Nc2ccc(-c3nn[nH]n3)cc2)CC1` [Example 17, N-alpha-{[trans-4-(Aminomethyl)cyclohexyl]carbonyl}-4-(6-hydroxypyridin-3-yl)-N-[4-(2H-tetrazol-5-yl)phenyl]-L-phenylalaninamide hydrochloride], the midpoint of inhibition at human factor XIa, the IC50, lay at 10 nM.

As for `COc1ccc(-c2ccc(C[C@H](NC(=O)[C@H]3CC[C@H](CN)CC3)C(=O)Nc3ccc4cn[nH]c4c3)cc2)c(C)n1` [Example 28, N-alpha-{[trans-4-(Aminomethyl)cyclohexyl]carbonyl}-N-1H-indazol-6-yl-4-(6-methoxy-2-methylpyridin-3-yl)-L-phenylalaninamide hydrochloride], the half-inhibitory concentration (IC50) against human factor XIa stood at 7.8 nM.

On human factor XIa, `NC[C@H]1CC[C@H](C(=O)N[C@@H](Cc2ccc(-c3ccnc(N4CCOCC4)c3)cc2)C(=O)Nc2ccc3c(=O)[nH][nH]c3c2)CC1` [Example 36, N-alpha-{[trans-4-(Aminomethyl)cyclohexyl]carbonyl}-4-[2-(morpholin-4-yl)pyridin-4-yl]-N-(3-oxo-2,3-dihydro-1H-indazol-6-yl)-L-phenylalaninamide hydrochloride] gave a concentration for half-maximal inhibition (IC50) of 7.2 nM.

On to `COc1ccc(-c2ccc(C[C@H](NC(=O)[C@H]3CC[C@H](CN)CC3)C(=O)Nc3ccc(-c4nn[nH]n4)cc3)cc2)cn1` [Example 38, N-alpha-{[trans-4-(Aminomethyl)cyclohexyl]carbonyl}-4-(6-methoxypyridin-3-yl)-N-[4-(2H-tetrazol-5-yl)phenyl]-L-phenylalaninamide], for which, on human factor XIa, the IC50 is 4.8 nM. In the case of `CCOc1ncccc1-c1ccc(C[C@H](NC(=O)[C@H]2CC[C@H](CN)CC2)C(=O)Nc2ccc(-c3nn[nH]n3)cc2)cc1` [Example 42, N-alpha-{[trans-4-(Aminomethyl)cyclohexyl]carbonyl}-4-(2-ethoxypyridin-3-yl)-N-[4-(2H-tetrazol-5-yl)phenyl]-L-phenylalaninamide hydrochloride], at human factor XIa, the IC50 was 3 nM.

What is called IC50 is the concentration needed to halve the response being measured.
